{"source": "patent US10364216B2", "about": "“Alkenyl sulfate ester or salt thereof” (Kao Corporation, priority 2013, dated 2019)", "biological_target": "T1, ENaC complex (human ENaCα, β and γ) (Homo sapiens, UniProt P37088+P51168+P51170)", "T1 construct": "host or cells: Xenopus oocytes injected with cRNA", "T1 sequence (P37088 1-669)": "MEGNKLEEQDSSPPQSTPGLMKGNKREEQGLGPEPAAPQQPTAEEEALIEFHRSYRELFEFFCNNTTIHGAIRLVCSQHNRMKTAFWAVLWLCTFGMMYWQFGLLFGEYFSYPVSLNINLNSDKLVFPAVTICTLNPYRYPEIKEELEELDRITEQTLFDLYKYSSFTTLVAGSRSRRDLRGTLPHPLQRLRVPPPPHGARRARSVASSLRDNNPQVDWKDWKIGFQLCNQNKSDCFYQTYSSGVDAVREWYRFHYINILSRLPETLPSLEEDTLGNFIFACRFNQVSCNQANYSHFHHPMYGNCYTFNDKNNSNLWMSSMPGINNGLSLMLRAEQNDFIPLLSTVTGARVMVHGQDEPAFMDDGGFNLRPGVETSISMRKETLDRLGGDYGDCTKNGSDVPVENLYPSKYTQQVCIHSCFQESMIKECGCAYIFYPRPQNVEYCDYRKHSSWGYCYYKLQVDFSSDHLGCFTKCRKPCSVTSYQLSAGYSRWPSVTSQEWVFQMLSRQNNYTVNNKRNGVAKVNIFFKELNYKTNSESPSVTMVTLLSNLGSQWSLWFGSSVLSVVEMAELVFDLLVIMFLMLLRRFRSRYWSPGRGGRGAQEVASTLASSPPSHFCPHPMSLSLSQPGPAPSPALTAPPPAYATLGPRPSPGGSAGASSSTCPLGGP", "T1 sequence (P51168 1-640)": "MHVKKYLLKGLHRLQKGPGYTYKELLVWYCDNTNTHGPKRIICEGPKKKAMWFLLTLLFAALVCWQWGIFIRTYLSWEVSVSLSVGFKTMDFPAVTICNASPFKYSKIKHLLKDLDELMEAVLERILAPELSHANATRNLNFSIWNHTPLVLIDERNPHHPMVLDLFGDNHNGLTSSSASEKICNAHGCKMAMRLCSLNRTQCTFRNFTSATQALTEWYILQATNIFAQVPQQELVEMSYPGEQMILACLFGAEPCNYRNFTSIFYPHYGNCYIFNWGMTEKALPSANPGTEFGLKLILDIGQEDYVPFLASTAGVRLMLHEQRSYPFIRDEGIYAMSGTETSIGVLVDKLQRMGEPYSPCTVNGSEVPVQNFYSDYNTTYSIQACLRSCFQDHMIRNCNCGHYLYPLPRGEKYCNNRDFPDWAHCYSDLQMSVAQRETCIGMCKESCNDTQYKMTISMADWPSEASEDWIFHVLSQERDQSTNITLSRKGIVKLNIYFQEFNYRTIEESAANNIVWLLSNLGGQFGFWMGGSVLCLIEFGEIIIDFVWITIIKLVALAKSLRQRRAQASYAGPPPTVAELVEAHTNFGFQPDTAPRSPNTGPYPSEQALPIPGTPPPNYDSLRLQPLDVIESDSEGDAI", "T1 sequence (P51170 1-649)": "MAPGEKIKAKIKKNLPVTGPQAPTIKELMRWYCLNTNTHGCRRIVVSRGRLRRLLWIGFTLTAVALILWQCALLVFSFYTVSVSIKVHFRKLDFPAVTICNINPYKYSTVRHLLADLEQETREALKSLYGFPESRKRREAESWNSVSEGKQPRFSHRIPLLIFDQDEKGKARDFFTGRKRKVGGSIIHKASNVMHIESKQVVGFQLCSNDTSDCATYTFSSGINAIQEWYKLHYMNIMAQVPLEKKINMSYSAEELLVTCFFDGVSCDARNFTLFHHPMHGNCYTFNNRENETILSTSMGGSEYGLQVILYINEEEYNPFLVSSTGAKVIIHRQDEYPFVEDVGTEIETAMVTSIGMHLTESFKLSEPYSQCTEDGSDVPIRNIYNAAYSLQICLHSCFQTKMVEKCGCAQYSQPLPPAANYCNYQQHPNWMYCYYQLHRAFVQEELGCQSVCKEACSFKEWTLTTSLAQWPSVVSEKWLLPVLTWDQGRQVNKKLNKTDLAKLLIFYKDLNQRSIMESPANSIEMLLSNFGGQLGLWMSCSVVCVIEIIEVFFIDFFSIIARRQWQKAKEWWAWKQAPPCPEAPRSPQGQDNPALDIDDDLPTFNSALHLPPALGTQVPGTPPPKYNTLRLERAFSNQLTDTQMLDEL", "assay": "ENaC inhibition activity, two-electrode voltage clamp in Xenopus oocytes", "type": "cell-based", "conditions": "3 to 30 mM; membrane potential −60 mV; 115 mM NaCl solution; FIG. 1", "description": "Inhibition activity of ENaC expressed in Xenopus oocytes was measured according to the method described in “The journal of biological chemistry, 284 (2): pages 792-798 (2009)”. Specifically, trans-3-octenyl sulfate was added to oocytes expressed with ENaC complex, and the activity of ENaC was analyzed electrophysiologically in accordance with the procedures described below.\nFirst, DNA sequences encoding human ENaCα, β and γ, respectively were obtained by carrying out PCR using a plasmid vector on which the same gene was cloned (manufactured by Clontech Laboratories, Inc.) as a template. The obtained PCR amplification fragment was integrated into a transcription vector pSP64 (manufactured by Promega Corporation), and pSP64/ENaCα, pSP64/ENaCβ and pSP64/ENaCγ were manufactured, respectively.\npSP64/ENaCα and pSP64/ENaCγ were digested with EcoRI, and pSP64/ENaCβ was digested with PvuII, respectively, whereby linearize the plasmid DNA. […]\nThe obtained aqueous solutions of cRNA encoding ENaCα, ENaCβ and ENaCγ respectively were mixed in the same quantity, and injected by 50 ng per one Xenopus oocyte. […]\nTwo micro-glass electrodes were inserted into the oocyte, and the membrane potential was fixed at −60 mV. At this time, Na^+ ion influx induced by ENaC complex in a constantly active state was measured with replacement to change of the current amount. […]", "note": "Counter-ions that a name gives are not always drawn.", "data": [{"smiles": "CCCC/C=C/CCOS(=O)(=O)O", "note": "[trans-3-octenyl sulfate]", "values": [{"measurement": "Effect on inward current of ENaC expressing oocytes", "result": "inhibited inward current of ENaC expressing oocytes concentration-dependently"}]}]}
